Test results published in patent publication US8809352B2, “Sulfonamides as inhibitors of Bcl-2 family proteins for the treatments of cancer” (Novartis AG, priority 2009, dated 2014).
pIC50: −log10 of the molar value.

Target: BCL2 (Homo sapiens, UniProt P10415)
Assay: Biacore SPR solution inhibition assay of BCL-2 binding to peptide derivatized sensor surfaces
Conditions: SPR competition; 56 nM BCL2 pre-equilibrated with compound one hour; biotinylated BAK, BAD and NOXA peptide surfaces; 25° C.
Procedure, shortened: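 Solution-competition SPR at 25 °C in HEPES pH 7.4 buffer with 1.25 mM DTT and 3% DMSO: compounds (6-point threefold series, 16 μM to 0.004 nM) pre-equilibrated 1 h with 56 nM BCL2, then injected over captured biotinylated BAK, BAD and NOXA peptide surfaces. Binding levels relative to BCL2-only controls gave % inhibition.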

Chain of BCL2 (P10415 whole entry): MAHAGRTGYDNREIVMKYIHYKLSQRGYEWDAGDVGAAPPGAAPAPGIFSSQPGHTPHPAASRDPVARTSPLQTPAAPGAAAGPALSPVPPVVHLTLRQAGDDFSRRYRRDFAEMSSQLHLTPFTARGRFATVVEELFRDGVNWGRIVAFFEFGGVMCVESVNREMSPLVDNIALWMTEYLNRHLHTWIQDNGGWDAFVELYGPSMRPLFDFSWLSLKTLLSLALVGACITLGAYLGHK

Structure (SMILES) | pIC50
CN(C)C(=O)C[C@H](CSc1ccccc1)Nc1ccc(S(=O)(=O)Nc2ncnc3c2CCN(C2CCN(Cc4ccccc4-c4ccc(Cl)cc4)CC2)C3)cc1[N+](=O)[O-] [Example 22, (R)-3-(4-(N-(7-(1-((4′-chlorobiphenyl-2-yl)methyl)piperidin-4-yl)-5,6,7,8-tetrahydropyrido[3,4-d]pyrimidin-4-yl)sulfamoyl)-2-nitrophenylamino)-N,N-dimethyl-4-(phenylthio)butanamide] | 7.12
CC(=O)N(CCSc1ccccc1)c1ccc(S(=O)(=O)Nc2ncnc3c2CCN(C2CCN(Cc4cc(F)ccc4-c4ccc(Cl)cc4)CC2)C3)cc1S(=O)(=O)C(F)(F)F [Example 15] | 6.12
CN(C)CC[C@H](CSc1ccccc1)Nc1ccc(S(=O)(=O)Nc2ncnc3c2CCN(C2CCN(Cc4ccccc4-c4ccc(Br)cc4)CC2)C3)cc1S(=O)(=O)C(F)(F)F [Example 6, (R)-N-(7-(1-((4′-bromobiphenyl-2-yl)methyl)piperidin-4-yl)-5,6,7,8-tetrahydropyrido[3,4-d]pyrimidin-4-yl)-4-(4-(dimethylamino)-1-(phenylthio)butan-2-ylamino)-3-(trifluoromethylsulfonyl)benzenesulfonamide] | 7.72
CN(C)CC[C@H](CSc1ccccc1)Nc1ccc(S(=O)(=O)Nc2ncnc3c2CCN(C2CCC(=Cc4ccccc4)CC2)C3)cc1S(=O)(=O)C(F)(F)F (some centres unmarked) [Example 63] | 5.93
CN(C)CC[C@H](CSc1ccccc1)Nc1ccc(S(=O)(=O)Nc2nc(Cl)nc3c2CCN(C2CCN(Cc4ccccc4-c4ccc(Cl)cc4)CC2)C3)cc1S(=O)(=O)C(F)(F)F [Example 50, (R)-N-(2-chloro-7-(1-((4′-chlorobiphenyl-2-yl)methyl)piperidin-4-yl)-5,6,7,8-tetrahydropyrido[3,4-d]pyrimidin-4-yl)-4-(4-(dimethylamino)-1-(phenylthio)butan-2-ylamino)-3-(trifluoromethylsulfonyl)benzenesulfonamide] | 7.51
CC(c1cc(F)ccc1-c1ccc(Cl)cc1)N1CCC(N2CCc3c(ncnc3NS(=O)(=O)c3ccc(N[C@H](CCN4CCN(C)CC4)CSc4ccccc4)c(S(=O)(=O)C(F)(F)F)c3)C2)CC1 (stereo partly drawn) [Example 35, N-(7-(1-(1-(4′-chloro-4-fluorobiphenyl-2-yl)ethyl)piperidin-4-yl)-5,6,7,8-tetrahydropyrido[3,4-d]pyrimidin-4-yl)-4-((R)-4-(4-methylpiperazin-1-yl)-1-(phenylthio)butan-2-ylamino)-3-(trifluoromethylsulfonyl)benzenesulfonamide] | 7.10
CN(C)CC[C@H](CSc1ccccc1)Nc1ccc(S(=O)(=O)Nc2ncnc3c2CCN(C2CCC(=Cc4ccccc4-c4ccc(Cl)cc4)CC2)C3)cc1S(=O)(=O)C(F)(F)F (stereo partly drawn) [Example 62, N-(7-(4-((4′-chlorobiphenyl-2-yl)methylene)cyclohexyl)-5,6,7,8-tetrahydropyrido[3,4-d]pyrimidin-4-yl)-4-((R)-4-(dimethylamino)-1-(phenylthio)butan-2-ylamino)-3-(trifluoromethylsulfonyl)benzenesulfonamide] | 6.76
CN(C)CC[C@H](CSc1ccccc1)Nc1ccc(S(=O)(=O)Nc2ncnc3c2CCN(C2CCN(Cc4cc(F)ccc4-c4ccc(Cl)cc4)CC2)C3)cc1S(=O)(=O)C(F)(F)F [Example 20] | 7.66
CN(C)CC[C@H](CSc1ccccc1)Nc1ccc(S(=O)(=O)Nc2ncnc3c2CCN(C2CCN(Cc4ccccc4-c4ccc(F)cc4)CC2)C3)cc1S(=O)(=O)C(F)(F)F [Example 5, (R)-4-(4-(dimethylamino)-1-(phenylthio)butan-2-ylamino)-N-(7-(1-((4′-fluorobiphenyl-2-yl)methyl)piperidin-4-yl)-5,6,7,8-tetrahydropyrido[3,4-d]pyrimidin-4-yl)-3-(trifluoromethylsulfonyl)benzenesulfonamide] | 7.60
CN(C)CC[C@H](CSc1ccccc1)Nc1ccc(S(=O)(=O)Nc2ncnc3c2CCN(C2CCC(O)(Cc4ccccc4-c4ccc(Cl)cc4)CC2)C3)cc1S(=O)(=O)C(F)(F)F (mixture of isomers) [Example 64, (R)-N-(7-(4-((4′-chlorobiphenyl-2-yl)methyl)-4-hydroxycyclohexyl)-5,6,7,8-tetrahydropyrido[3,4-d]pyrimidin-4-yl)-4-(4-(dimethylamino)-1-(phenylthio)butan-2-ylamino)-3-(trifluoromethylsulfonyl)benzenesulfonamide] | 7.15
O=S(=O)(Nc1nnc2n1CCN(C1CCN(Cc3ccccc3-c3ccc(Cl)cc3)CC1)C2)c1ccc(N[C@H](CCN2CCOCC2)CSc2ccccc2)c(S(=O)(=O)C(F)(F)F)c1 [Example 94] | 6.39
CN(C)CC[C@H](CSc1ccccc1)Nc1ccc(S(=O)(=O)Nc2ncnc3c2CCN(C2CCN(Cc4ccccc4Br)CC2)C3)cc1S(=O)(=O)C(F)(F)F [Example 7, (R)-N-(7-(1-(2-bromobenzyl)piperidin-4-yl)-5,6,7,8-tetrahydropyrido[3,4-d]pyrimidin-4-yl)-4-(4-(dimethylamino)-1-(phenylthio)butan-2-ylamino)-3-(trifluoromethylsulfonyl)benzenesulfonamide] | 6.30
[2H]C1(N2CCc3c(ncnc3NS(=O)(=O)c3ccc(N[C@H](CCN(C)C(C)C)CSc4ccccc4)c(S(=O)(=O)C(F)(F)F)c3)C2)CCN(CC2=C(c3ccc(Cl)cc3)CC(C)(C)CC2)CC1 [Example 78, N-(7-(1-[2-(4-Chloro-phenyl)-4,4-dimethyl-cyclohex-1-enylmethyl]-4-deutero-piperidin-4-yl)-5,6,7,8-tetrahydro-pyrido[3,4-d]pyrimidin-4-yl)-4-[(R)-3-(isopropyl-methyl-amino)-1-phenylsulfanylmethyl-propylamino]-3-trifluoromethanesulfonyl-benzenesulfonamide] | 7.39
CN(C)CC[C@H](COCc1ccccc1)Nc1ccc(S(=O)(=O)Nc2ncnc3c2CCN(C2CCN(Cc4ccccc4-c4ccc(Cl)cc4)CC2)C3)cc1S(=O)(=O)C(F)(F)F [Example 25, 4-((R)-1-Benzyloxymethyl-3-dimethylamino-propylamino)-N-{7-[1-(4′-chloro-biphenyl-2-ylmethyl)-piperidin-4-yl]-5,6,7,8-tetrahydro-pyrido[3,4-d]pyrimidin-4-yl}-3-trifluoromethanesulfonyl-benzenesulfonamide] | 6.85
CC(C1=C(c2ccc(Cl)cc2)CC(C)(C)CC1)N1CCC(N2CCc3c(ncnc3NS(=O)(=O)c3ccc(N[C@H](CCN4CCOCC4)CSc4ccccc4)c(S(=O)(=O)C(F)(F)F)c3)C2)CC1 (some centres unmarked) [Example 24] | 7.05
CN(C)CC[C@H](CSc1cccc(Cl)c1)Nc1ccc(S(=O)(=O)Nc2ncnc3c2CCN(C2CCN(Cc4ccccc4-c4ccc(Cl)cc4)CC2)C3)cc1S(=O)(=O)C(F)(F)F [Example 26, N-{7-[1-(4′-Chloro-biphenyl-2-ylmethyl)-piperidin-4-yl]-5,6,7,8-tetrahydro-pyrido[3,4-c]pyrimidin-4-yl}-4-[(R)-1-(3-chloro-phenylsulfanylmethyl)-3-dimethylamino-propylamino]-3-trifluoromethanesulfonyl-benzenesulfonamide] | 7.32
O=S(=O)(Nc1ncnc2c1CCN(C1CCN(Cc3ccccc3-c3ccc(Cl)cc3)CC1)C2)c1ccc(NCCSc2ccccc2)c(S(=O)(=O)C(F)(F)F)c1 [Example 52] | 5.88
CC[C@H](CSc1ccccc1)Nc1ccc(S(=O)(=O)Nc2ncnc3c2CCN(C2CCN(Cc4ccccc4-c4ccc(Cl)cc4)CC2)C3)cc1S(=O)(=O)C(F)(F)F [Example 13] | 6.30
[2H]C1(N2CCc3c(nc(C(F)(F)F)nc3NS(=O)(=O)c3ccc(N[C@H](CCN4CCN(C)CC4)CSc4ccccc4F)c(S(=O)(=O)C(F)(F)F)c3)C2)CCN([C@@H](C)c2ccccc2-c2ccc(Cl)cc2)CC1 [Example 74] | 7.39
CN1CCN(CC[C@H](CSc2ccccc2F)Nc2ccc(S(=O)(=O)Nc3ncnc4c3CCN(C3CCN(CC5=C(c6ccc(Cl)cc6)CC(C)(C)CC5)CC3)C4)cc2S(=O)(=O)C(F)(F)F)CC1 [Example 55, (R)-N-(7-(1-((2-(4-chlorophenyl)-4,4-dimethylcyclohex-1-enyl)methyl)piperidin-4-yl)-5,6,7,8-tetrahydropyrido[3,4-d]pyrimidin-4-yl)-4-(1-(2-fluorophenylthio)-4-(4-methylpiperazin-1-yl)butan-2-ylamino)-3-(trifluoromethylsulfonyl)benzenesulfonamide] | 7.46
CN(C)CC[C@H](CSc1ccccc1F)Nc1ccc(S(=O)(=O)Nc2ncnc3c2CCN(C2CCN(Cc4ccccc4-c4ccc(Cl)cc4)CC2)C3)cc1S(=O)(=O)C(F)(F)F [Example 47, N-{7-[1-(4′-Chloro-biphenyl-2-ylmethyl)-piperidin-4-yl]-5,6,7,8-tetrahydro-pyrido[3,4-d]pyrimidin-4-yl}-4-[(R)-3-dimethylamino-1-(2-fluoro-phenylsulfanylmethyl)-propylamino]-3-trifluoromethanesulfonyl-benzene sulfonamide] | 7.60
CCC[C@H](CSc1ccccc1)Nc1ccc(S(=O)(=O)Nc2ncnc3c2CCN(C2CCN(Cc4ccccc4-c4ccc(Cl)cc4)CC2)C3)cc1S(=O)(=O)C(F)(F)F [Example 43, (R)-N-(7-(1-((4′-chlorobiphenyl-2-yl)methyl)piperidin-4-yl)-5,6,7,8-tetrahydropyrido[3,4-d]pyrimidin-4-yl)-4-(1-(phenylthio)pentan-2-ylamino)-3-(trifluoromethylsulfonyl)benzenesulfonamide] | 5.62
CC1CC(N2CCc3c(ncnc3NS(=O)(=O)c3ccc(N[C@H](CCN4CCOCC4)CSc4ccccc4)c(S(=O)(=O)C(F)(F)F)c3)C2)CCN1CC1=C(c2ccc(Cl)cc2)CC(C)(C)CC1 (stereo partly drawn) [Example 27, N-(7-(1-((2-(4-chlorophenyl)-4,4-dimethylcyclohex-1-enyl)methyl)-2-methylpiperidin-4-yl)-5,6,7,8-tetrahydropyrido[3,4-d]pyrimidin-4-yl)-4-((R)-4-morpholino-1-(phenylthio)butan-2-ylamino)-3-(trifluoromethylsulfonyl)benzenesulfonamide] | 6.69
